From patent US4737494A, “1,3-dithiole derivatives and pharmaceutical compositions” (priority 1984, dated 1988)

What was measured:
Format in all cases: in vivo, mice (ddY, male)
[1] = Acute toxicity test (oral, mortality 1 week after administration); settings: mouse, in vivo, mice, in olive oil
Method: (§1) A test compound was suspended in olive oil and administered orally to mice (ddY mice,.male., 23±2 g, n=5 or 6). The actute toxicity value (LD50) was determined from the mortality 1 week after the administration.

[2] = tested on: mice; experiment: as above
Method: as §1

[3] = tested on: acute liver injury induced by carbon tetrachloride; experiment: Protective effect on acute liver injury induced by carbon tetrachloride (mice, oral): plasma GPT activity and BSP retention; settings: 6 h before CCl4 (0.05 ml/kg p.o.); for GPT activity: plasma; for Retained BSP: plasma 30 min after BSP 75 mg/kg i.v.
Method: 1. Protective Effect on Acute Liver Injury Induced by Carbon Tetrachloride
A test compound was dissolved or suspended in olive oil and administered orally to mice (ddY mice, .male., 23±2 g, n=5). After 6 hours, carbon tetrachloride (0.05 ml/kg) was administered orally. 24 Hours after the administration of carbon tetrachloride, BSP (sodium sulfobromophthalein; 75 mg/kg) was administered intravenously. Thirty minutes later, the cardiac blood was collected, and GPT (glutamic-pyruvic transaminase) activity and the retention rate of BSP in the plasma were measured.

## CCOC(=O)C1CCC[N+](=c2sccs2)C1.[I-] (stereo not drawn) [Compound No. 55, 1-(1,3-dithiol-2-ylidene)-3-ethoxycarbonylpiperidinium iodide]
[1]
  LD50 at 168 h: ≥ 1500 mg/kg
[2]
  acute toxicity (in words): extremely low toxicity
[3]; 1 mg/kg
  GPT activity: 2981 ± 169 Karmen units
  Retained BSP: 83.9 ± 14.1 µg/mL
[3]; 5 mg/kg
  GPT activity: 361 ± 49 Karmen units
  Retained BSP: 18.3 ± 4.4 µg/mL

## CN1CC[N+](=c2sccs2)CC1.[O-][Cl+3]([O-])([O-])[O-] [Compound No. 31, 1-(1,3-dithiol-2-ylidene)-4-methylpiperazinium perchlorate]
[1]
  LD50 at 168 h: ≥ 1500 mg/kg
[2]
  acute toxicity (in words): extremely low toxicity
[3]; 1 mg/kg
  GPT activity: 523 ± 111 Karmen units
  Retained BSP: 20.3 ± 3.4 µg/mL
[3]; 5 mg/kg
  GPT activity: 148 ± 51 Karmen units
  Retained BSP: 12.6 ± 0.6 µg/mL

## CCOC(=O)C[N+](C)=c1sccs1.[Cl-] [Compound No. 2, N-(1,3-dithiol-2-ylidene)-N-methyl-N-ethoxycarbonylmethylammonium chloride]
[1]
  LD50 at 168 h: ≥ 1500 mg/kg
[2]
  acute toxicity (in words): extremely low toxicity
[3]; 1 mg/kg
  GPT activity: 3190 ± 412 Karmen units
  Retained BSP: 57.4 ± 12.3 µg/mL
[3]; 5 mg/kg
  GPT activity: 192 ± 84 Karmen units
  Retained BSP: 17.1 ± 1.4 µg/mL

## CCOC(=O)C1CCC[N+]1=c1sccs1.[O-][Cl+3]([O-])([O-])[O-] (stereo not drawn) [Compound No. 41, 1-(1,3-dithiol-2-ylidene)-2-ethoxycarbonyl pyrrolidinium perchlorate]
[1]
  LD50 at 168 h: ≥ 1500 mg/kg
[2]
  acute toxicity (in words): extremely low toxicity
[3]; 1 mg/kg
  GPT activity: 405 ± 73 Karmen units
  Retained BSP: 26.5 ± 3.1 µg/mL
[3]; 5 mg/kg
  GPT activity: 165 ± 21 Karmen units
  Retained BSP: 17.9 ± 2.0 µg/mL

## CCOC(=O)C1CC[N+](=c2sccs2)CC1.[O-][Cl+3]([O-])([O-])[O-] (stereo not drawn) [Compound No. 56, 1-(1,3-dithiol-2-ylidene)-4-ethoxycarbonylpiperidinium perchlorate]
[1]
  LD50 at 168 h: ≥ 1500 mg/kg
[2]
  acute toxicity (in words): extremely low toxicity
[3]; 1 mg/kg
  GPT activity: 2713 ± 147 Karmen units
  Retained BSP: 76.6 ± 13.1 µg/mL
[3]; 5 mg/kg
  GPT activity: 216 ± 32 Karmen units
  Retained BSP: 21.0 ± 13.4 µg/mL
